According to publication PMC7055224, “High-Throughput Screening to Predict Chemical-Assay Interference” (Scientific Reports, 2020):
Like-named read-outs stand apart in the source and are kept apart here.

What was measured:
firefly-Luciferase = target: T1, firefly-Luciferase (Photinus pyralis, UniProt P08659); assay: Luciferase (biochemical) qHTS assay, tox21-luc-biochem-p1, cell-free; settings: for AC50: no unit printed in the picture (text uses µM)
T1 construct: purchased Sigma-Aldrich (St. Louis, MO)
Source text: (§1) Three assay platforms were applied to analyze luciferase and fluorescence interference patterns using the Tox21 chemical screening library. […] The Tox21 chemical library (8,305 unique substances) was screened in triplicate concentration response in all assays, with concurrent cytotoxicity measurements where applicable.
The substrate D-Luciferin and the enzyme firefly-Luciferase were purchased from Sigma-Aldrich (St. Louis, MO). The positive control compound (PTC-124) was purchased from Santa Cruz Biotechnology, Inc. (Dallas, TX).
Three µL of the substrate (mixture containing 50 mM Tris-acetate pH 7.6, 13.3 mM magnesium acetate, 0.01 mM D-luciferin, 0.01 mM ATP, 0.01% Tween, 0.05% BSA and distilled H2O) was dispensed into medium-binding white/solid 1,536-well plates (Greiner Bio-One North America Inc., Monroe, NC) using a Flying Reagent Dispenser, FRD (Aurora Discovery, Carlsbad, CA). Then 23 nL of the test compounds (into 5–48 columns), PTC-124 and/or DMSO (into 1–4 columns) were transferred to the assay plates using a Pintool station (Wako, San Diego, CA). The positive control plate format is, column-1: sixteen-concentration two-fold titration of PTC-124 from 0.035 nM to 1.15 µM with duplicate points; columns-2 & 3 for the top half portions: 0.58 and 1.15 µM PTC-124 respectively and DMSO in the rest. Compound addition was followed by the addition of 1 μl of 10 nM enzyme (mixture containing 50 mM Tris-acetate, 0.04 µM firefly-Luciferase and distilled H2O) by using an FRD to all the wells of assay plate except in the 4th column which received the buffer instead. After 5 min incubation at room temperate, luminescence intensity was measured by a Viewlux plate reader (Perkin Elmer, Waltham, MA). Data were expressed as relative luminescence units. Each test compound was measured at 15 concentrations ranging from 1.5 nM to 115 µM and in triplicate.
For primary data analysis, raw plate reads for each titration point were first normalized relative to DMSO-only wells that received firefly-Luciferase (basal, 0%) and PTC-124 control wells that received firefly-Luciferase (0.58 µM, −100%) and then corrected by applying a pattern correction algorithm using compound-free control plates (DMSO plates). Concentration-response titration points for each compound replicate were fitted to the Hill equation and concentrations of half-maximal inhibition activity (IC50) and maximal response (efficacy) values were calculated; the mean of the IC50s was used as the representative value. Concentration response curves were designated as class 1–4 based on the quality of the fit, the number of points above background, and the response efficacy, as previously described (summarized in Supporting Information Table S1)[18],[20].
(§2) Finally, for autofluorescence assays, to avoid indications of generalized cell stress without specific biomolecular interactions, only AC50 below the burst cutoff defined in[23] were considered. Indeed, activity above this limit may result from triggering cell stress pathways, chemical reactivity, physico-chemical disruption of proteins or membranes, or broad low-affinity non-covalent interactions and not from a specific technology interference reaction. This filter was applied to distinguish chemical-structure driven autofluorescence from the increase in signal that has been observed due to cell stress. The distribution of the curve classes for active chemicals is presented in Supporting Information Fig. S1.

HepG2 and HEK-293 [1] = assay: Autofluorescence assays, green channel, the four conditions taken together; settings: for autofluorescence activity: example structures of SOM clusters 209, 173, 117
Experimental: (§3) Three assay platforms were applied to analyze luciferase and fluorescence interference patterns using the Tox21 chemical screening library.
(§4) HepG2 and HEK-293 cells were purchased from American Type Culture Collection (ATCC, Manassas, VA). HepG2 cells were cultured in Eagle’s Minimum Essential Medium (EMEM, ATCC) and HEK-293 cells in Dulbecco’s Modified Eagle’s Medium (DMEM, Life Technologies Corporation, Carlsbad, CA), and both supplemented with 10% Hyclone’s Fetal Bovine Serum (ThermoFisher Scientific, Waltham, MA), and 100 U/ml penicillin-100 µg/ml streptomycin (Life Technologies Corporation). Cells were cultured and maintained at 37 °C under a humidified atmosphere and 5% CO2.
(§5) HepG2 and HEK-293 cells were dispensed at 2,000/well in 5 µL of the culture medium into 1,536-well black/clear plates using a Multidrop™ Combi Reagent dispenser (ThermoFisher Scientific). In parallel, 5 µL/well of culture medium only were dispensed into 1,536-well black/clear plates. […] After respective incubation times, 23 nL of the compounds dissolved in DMSO, positive controls (fluorescein-green, triamterene-blue, and rose bengal-red) were transferred to the assay plates using Pintool station (Wako, San Diego, CA). […] Data were expressed as relative fluorescence units.
(§6) Analysis of compound concentration-response data was performed as previously described. Briefly, raw plate reads for each titration point were first normalized and then corrected by applying a pattern correction algorithm using compound-free control plates (DMSO plates)[22]. […] When normalizing to the positive control, the positive control response was set to 100% and negative control to 0% as follows: Activity(%)=([Vc−VDMSO]/[Vpos−VDMSO])×100, where Vc denotes the compound well values, Vpos denotes the median value of the positive control wells, and VDMSO denotes the median values of the DMSO-only wells. […] The following formula was used to normalize data to the negative control: Activity(%)=([Vc−VDMSO]/[VDMSO])×100 Concentration-response titration points for each compound were fitted to the Hill equation and concentrations of half-maximal activity (AC50) and maximal response (efficacy) values were calculated. Concentration response curves were designated as class 1–4 based on the quality of the fit, the number of points above background, and the response efficacy, as previously described (summarized in Supporting Information Table S1)[18],[20].
Finally, for autofluorescence assays, to avoid indications of generalized cell stress without specific biomolecular interactions, only AC50 below the burst cutoff defined in[23] were considered. […]

HepG2 and HEK-293 [2] = assay: Autofluorescence assays, all channels and culture conditions taken together; settings: for autofluorescence activity specific to one cell culture: among chemicals active within wavelengths, Fig. 8
Experimental: as §1, §4
(§7) HepG2 and HEK-293 cells were dispensed at 2,000/well in 5 µL of the culture medium into 1,536-well black/clear plates using a Multidrop™ Combi Reagent dispenser (ThermoFisher Scientific). In parallel, 5 µL/well of culture medium only were dispensed into 1,536-well black/clear plates. […] After respective incubation times, 23 nL of the compounds dissolved in DMSO, positive controls (fluorescein-green, triamterene-blue, and rose bengal-red) were transferred to the assay plates using Pintool station (Wako, San Diego, CA). […] The fluorescence intensity was measured using an Envision plate reader (Perkin Elmer, Waltham, MA) by using excitation/emission filters at 485/535 nm, 405/460 nm, and 540/590 nm for green, blue and red channels respectively. Data were expressed as relative fluorescence units. Each test compound was measured at 5 concentrations ranging from to 29 nM to 92 µM.
as §6
Finally, for autofluorescence assays, to avoid indications of generalized cell stress without specific biomolecular interactions, only AC50 below the burst cutoff defined in[23] were considered. Indeed, activity above this limit may result from triggering cell stress pathways, chemical reactivity, physico-chemical disruption of proteins or membranes, or broad low-affinity non-covalent interactions and not from a specific technology interference reaction. […]

HepG2 and HEK-293 [3] = assay: Autofluorescence assays, red channel, the four conditions taken together
Experimental: as §1, §4, §7
as §6, with “Concentration response curves were designated as class 1–4 based on the quality of the fit, the number of points above background, and the response efficacy, as previously described (summarized in Supporting Information Table S1)[18],[20].” left out

HepG2 and HEK-293 [4] = assay: Autofluorescence assays, blue channel, the four conditions taken together (HepG2/HEK-293, cell-based/cell-free); settings: for autofluorescence activity specific to culture condition: Fig. 8A
Experimental: as §3, §4, §5, §6
as §2, with “stress.” for “stress. The distribution of the curve classes for active chemicals is presented in Supporting Information Fig. S1.”

HEK-293 cells = assay: Autofluorescence qHTS, HEK-293 cell based, green channel; settings: Homo sapiens; Hek293 cell based, green spectrum; unit inferred
Experimental: as §1
(§8) HepG2 and HEK-293 cells were purchased from American Type Culture Collection (ATCC, Manassas, VA). […]
(§9) HepG2 and HEK-293 cells were dispensed at 2,000/well in 5 µL of the culture medium into 1,536-well black/clear plates using a Multidrop™ Combi Reagent dispenser (ThermoFisher Scientific). […] The fluorescence intensity was measured using an Envision plate reader (Perkin Elmer, Waltham, MA) by using excitation/emission filters at 485/535 nm, 405/460 nm, and 540/590 nm for green, blue and red channels respectively. Data were expressed as relative fluorescence units. Each test compound was measured at 5 concentrations ranging from to 29 nM to 92 µM.
(§10) Analysis of compound concentration-response data was performed as previously described. Briefly, raw plate reads for each titration point were first normalized and then corrected by applying a pattern correction algorithm using compound-free control plates (DMSO plates)[22]. […]

HepG2 cells = assay: Autofluorescence qHTS, HepG2 cell based, green channel; settings: Homo sapiens, green spectrum, unit inferred
Experimental: as §1, §8, §9, §10

[5] = all four assay conditions, read-out: AC50s

T1 sequence (P08659 whole entry): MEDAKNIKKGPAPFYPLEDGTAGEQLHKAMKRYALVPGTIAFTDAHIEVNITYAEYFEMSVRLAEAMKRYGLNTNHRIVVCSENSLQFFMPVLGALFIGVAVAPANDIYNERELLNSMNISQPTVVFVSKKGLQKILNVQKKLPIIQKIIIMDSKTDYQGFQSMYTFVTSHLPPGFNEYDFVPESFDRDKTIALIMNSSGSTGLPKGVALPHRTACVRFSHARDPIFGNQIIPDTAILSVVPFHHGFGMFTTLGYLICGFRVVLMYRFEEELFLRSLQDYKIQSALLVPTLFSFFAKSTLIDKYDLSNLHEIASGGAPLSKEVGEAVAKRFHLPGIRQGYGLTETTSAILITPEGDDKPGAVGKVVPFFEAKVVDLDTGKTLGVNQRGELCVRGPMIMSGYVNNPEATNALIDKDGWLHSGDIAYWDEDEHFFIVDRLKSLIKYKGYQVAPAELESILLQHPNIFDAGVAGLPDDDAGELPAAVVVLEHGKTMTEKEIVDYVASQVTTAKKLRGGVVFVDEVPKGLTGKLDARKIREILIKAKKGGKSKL

With `[O-][n+]1ccccc1S` [13463-41-7] as the compound, how does the IC50 (firefly-Luciferase; after filtering, no unit printed in the sheet, read-out: Luc_IC50) read?
The IC50 was 481 nM.

How did the autofluorescence activity (HepG2 and HEK-293 [1]) turn out when `O=C1CCCO1` [Chemical 32] was run?
Its autofluorescence activity is “Active”.

What about the autofluorescence activity (HepG2 and HEK-293 [2]; green and red channel, SOM cluster 209) of the same compound?
The autofluorescence activity was “autofluorescent in both the green and red channel”.

Which autofluorescence activity (HepG2 and HEK-293 [1]) does the source give for `CC(CO)NC(=O)C1C=C2c3cccc4[nH]cc(c34)CC2N(C)C1` (centres unmarked) [Chemical 36] here?
Its autofluorescence activity is “actives”.

With `O=C(O)CCCc1ccc(N(CCCl)CCCl)cc1` [Chemical 44] as the compound, how does the autofluorescence activity (HepG2 and HEK-293 [3]; example structures of SOM clusters 194 (219 in Fig. 6) and 143) read?
Its autofluorescence activity is “actives”.

`CCCNC(=O)NS(=O)(=O)c1ccc(Cl)cc1` [Chemical 49] was tested. Which “autofluorescence activity specific to one cell culture” value (HepG2 and HEK-293 [2]) did it give?
The value was “active only on HEK-293”.

For `OC[C@H]1O[C@@H]2O[C@H]3[C@H](O)[C@@H](O)[C@@H](O[C@H]4[C@H](O)[C@@H](O)[C@@H](O[C@H]5[C@H](O)[C@@H](O)[C@@H](O[C@H]6[C@H](O)[C@@H](O)[C@@H](O[C@H]7[C@H](O)[C@@H](O)[C@@H](O[C@H]8[C@H](O)[C@@H](O)[C@@H](O[C@H]1[C@H](O)[C@H]2O)O[C@@H]8CO)O[C@@H]7CO)O[C@@H]6CO)O[C@@H]5CO)O[C@@H]4CO)O[C@@H]3CO` [Chemical 58], which “autofluorescence activity specific to culture condition” value (HepG2 and HEK-293 [4]) is on record?
The value was “active only in the HEK-293 cell-free condition”.

Which “autofluorescence activity specific to culture condition” value (HepG2 and HEK-293 [4]) does the source give for `O=C1CCCCC1` [Chemical 59] here?
Its value is “active only in the HEK-293 cell-free condition”.

For `CN(C)N=Nc1nc[nH]c1C(N)=O` [Chemical 63], which “autofluorescence activity specific to one cell culture” value (HepG2 and HEK-293 [2]) is on record?
Its value is “active specifically on the HepG2 culture”.

For `Nc1ccc(N)cc1` [Chemical 77], which “autofluorescence activity specific to one cell culture” value (HepG2 and HEK-293 [2]) is on record?
The value was “active only on HEK-293”.

With `Nc1ccc(N)c2ccccc12` [Chemical 79] as the compound, how does the “autofluorescence activity specific to one cell culture” value (HepG2 and HEK-293 [2]) read?
The value was “active specifically on the HepG2 culture”.

What does the source list for `O=C(O)c1cccc(-c2noc(-c3ccccc3F)n2)c1` [PTC-124, Ataluren]?
response curve class (firefly-Luciferase): −1.1; IC50 (firefly-Luciferase; estimated, based on triplicate measurements, read-out: IC50): < 20 nM; AC50 (firefly-Luciferase; set1): 0.00871 µM; AC50 (firefly-Luciferase; set2): 0.0195 µM; AC50 (firefly-Luciferase; set3): 0.0195 µM

For `O=C1OC2(c3ccc(O)cc3Oc3cc(O)ccc32)c2ccccc21` [fluorescein], which curve class (HepG2 and HEK-293 [1]; all four assay conditions) is on record?
The curve class was 1.1.

What about the EC50 (HepG2 and HEK-293 [1]; [5]) of the same compound?
The EC50 was < 4 µM.

What about the AC50 (HEK-293 cells) of the same compound?
The AC50 was 2820 nM.

What about the AC50 (HepG2 cells) of the same compound?
Its AC50 is 3.16 µM.

Which response curve class (HepG2 and HEK-293 [3]; all four assay conditions) does the source give for rose bengal here?
The response curve class was 2.1.

And the EC50 (HepG2 and HEK-293 [3]; [5])?
The EC50 was < 12 µM.

And the efficacy (HepG2 and HEK-293 [3]; incomplete response)?
Its efficacy is > 80%.

Which results are given for triamterene [Tiramterene]?
response curve class (HepG2 and HEK-293 [4]; all four assay conditions): 2.1; EC50 (HepG2 and HEK-293 [4]; [5]): < 40 µM; efficacy (HepG2 and HEK-293 [4]; incomplete response): > 80%
